The source of these data is US10745401B2, “Condensed lactam derivative” (Sumitomo Dainippon Pharma Co., Ltd., priority 2018, dated 2020).

In data set [1] the target is T1, hERG channel (Homo sapiens (Human), UniProt Q12809). In words: Test 6-1: inhibitory activity for hERG channel (auto patch clamp, Qpatch). It counts as cell-based. The conditions noted are these: whole cell auto patch clamp, hERG-CHO cells; read-out: hERG inhibition IC50. The method, boiled down: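 Whole-cell patch clamp on an automated system using CHO cells stably expressing human hERG (IKr); 15 s pulse interval. Four increasing compound concentrations applied cumulatively; mean peak tail current from last 3 stimulations per concentration used. IC50 from inhibition versus pre-compound current, fitted by Hill equation.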
T1 sequence (Q12809 whole entry): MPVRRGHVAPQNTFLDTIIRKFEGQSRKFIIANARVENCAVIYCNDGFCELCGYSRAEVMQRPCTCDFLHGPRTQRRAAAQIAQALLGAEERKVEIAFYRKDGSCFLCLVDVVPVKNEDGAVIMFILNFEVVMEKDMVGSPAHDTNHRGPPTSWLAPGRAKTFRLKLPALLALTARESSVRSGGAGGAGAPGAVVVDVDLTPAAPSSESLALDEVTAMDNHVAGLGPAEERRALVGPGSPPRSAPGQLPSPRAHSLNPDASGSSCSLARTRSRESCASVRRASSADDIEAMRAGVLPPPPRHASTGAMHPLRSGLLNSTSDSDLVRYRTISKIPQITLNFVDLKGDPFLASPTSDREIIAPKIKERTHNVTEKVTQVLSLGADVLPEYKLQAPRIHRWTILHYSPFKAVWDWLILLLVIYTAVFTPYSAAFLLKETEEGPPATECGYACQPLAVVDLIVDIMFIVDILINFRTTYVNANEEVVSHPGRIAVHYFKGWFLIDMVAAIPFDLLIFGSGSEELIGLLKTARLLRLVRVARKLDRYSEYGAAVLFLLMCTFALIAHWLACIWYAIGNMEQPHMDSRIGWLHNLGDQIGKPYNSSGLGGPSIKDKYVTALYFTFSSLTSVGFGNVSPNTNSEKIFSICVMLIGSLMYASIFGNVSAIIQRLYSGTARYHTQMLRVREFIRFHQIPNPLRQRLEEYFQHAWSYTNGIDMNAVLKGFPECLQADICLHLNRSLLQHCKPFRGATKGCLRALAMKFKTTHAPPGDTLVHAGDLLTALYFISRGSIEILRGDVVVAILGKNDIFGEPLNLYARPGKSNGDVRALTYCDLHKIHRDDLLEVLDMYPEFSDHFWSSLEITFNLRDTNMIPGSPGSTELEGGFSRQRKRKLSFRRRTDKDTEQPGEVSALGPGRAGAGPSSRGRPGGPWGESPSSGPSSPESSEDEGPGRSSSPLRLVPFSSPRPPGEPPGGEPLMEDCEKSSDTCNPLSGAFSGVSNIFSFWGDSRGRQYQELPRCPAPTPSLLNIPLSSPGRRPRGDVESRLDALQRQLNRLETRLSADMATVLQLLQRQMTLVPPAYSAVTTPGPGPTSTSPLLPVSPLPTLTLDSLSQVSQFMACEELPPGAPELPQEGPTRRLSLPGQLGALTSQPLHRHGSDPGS
(Block of hERG is tested as a sign of cardiac risk.)

The target in data set [2] is T2, human 5-HT2A receptor (Homo sapiens (Human), UniProt P28223). In words: Test 1: binding activity for human 5-HT2A receptor ([3H]Ketanserin, CHO cell membrane fraction). The method, boiled down:
(§1)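 CHO-cell membranes with [3H]ketanserin (5-HT2A) or [3H]spiperone (D2) were incubated with compound for 60 min at room temperature, then filtered, and bound radioactivity was counted by scintillation. Ki = IC50/(1+S/Kd), with ligand Kd from saturation binding on the same membranes.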

The nature of data set [3]: Test 4: metabolic stability test in human hepatic microsome. It counts as in vitro ADME. As to conditions: 0.1 mg/mL microsome, 0.1 μmol/L compound, 37° C., 30 minutes. A digest of the protocol: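 Compound at 0.1 μmol/L incubated 30 min at 37° C with human liver microsomes (0.1 mg/mL) and NADPH (3.2 mmol/L) in 25 mmol/L phosphate buffer, pH 7.4. Residual compound measured by LC-MS; stability (mL/min/mg protein) = −LN(residual ratio)/30/0.1.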

For data set [4], the target named is T2, human 5-HT2A receptor. In words: Test 3: antagonist activity for human 5-HT2A receptor (aequorin luminescence, CHO-K1 cells). Format: cell-based. The conditions noted are these: CHO-K1 cells, 1 nmol/L 5-HT. A digest of the protocol:
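CHO-K1 cells transiently co-expressing aequorin, Gα16 and receptor; compound in DMSO added and luminescence recorded on FDSS/μCELL.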

For data set [5], the target named is T3, human 5-HT1A receptor (Homo sapiens (Human), UniProt P08908). Nature of the data set: Test 2: agonist activity for human 5-HT1A receptor ([35S]GTPγS binding). It counts as biochemical. As to conditions: for Emax at 10 µM: agonist activity in the presence of 10 μM of compound, relative to 100 μmol/L 5-HT; for EC50: [35S]GTPγS binding, concentration at which half the activity of Emax was obtained. A digest of the protocol:
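Membranes from CHO cells expressing human 5-HT1A incubated with compound, GDP-containing buffer and [35S]GTPγS for 60 min at room temperature. Bound radioactivity collected by glass-fibre filtration and counted by liquid scintillation; agonist activity derived from a formula.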
On the technique in general: Binding of GTPγS marks nucleotide exchange on a G protein.

Data set [6] is described as follows: Test 5: predictive test of human half-life (monkey distribution volume, serum unbound fraction, microsomal stability). It counts as in vivo. As to conditions: predicted from cynomolgus monkey distribution volume (i.v.), serum unbound fraction and human hepatic microsome stability. How it is done:
Test 5: Predictive Test of Human Half-Life
The present compound was intravenously administered to cynomolgus monkey as an aqueous solution in 0.01 mol/L hydrochloric acid. Blood was collected on 5 minutes, 15 minutes, 30 minutes, 1 hour, 2 hours, 4 hours, 6 hours, and 24 hours after the administration. Plasma was obtained from the collected blood, the drug concentration in the plasma was measured by LC-MS, and the distribution volume of monkey was calculated from the transition of the concentration.
The unbound fraction rate of the present compound in human or monkey serum was measured by equilibrium dialysis method.
The half-life in human was calculated according to the following formula using the results of the distribution volume of monkey, the unbound fraction rate in human or monkey serum, and the metabolic stability in human hepatic microsome obtained in Test 3.

Data set [7] has as its target T3, human 5-HT1A receptor. In words: Test 1: binding activity for human 5-HT1A receptor ([3H]8-OH-DPAT, CHO cell membrane fraction). The method, boiled down:
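Membranes incubated with [3H]8-OH-DPAT and compound for 60 min at room temperature, then filtered on polyethylenimine-coated glass-fibre plates and counted by liquid scintillation. IC50 from Hill analysis; Ki = IC50/(1+S/Kd), Kd from saturation binding on the same membranes.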

The target in data set [8] is human D2 receptor (Homo sapiens (Human), UniProt P14416). Nature of the data set: Test 1: binding activity for human D2 receptor ([3H]Spiperone, CHO cell membrane fraction). As to conditions: human D2 receptor, [3H]Spiperone. The method, boiled down:
as §1

Data set [9] concerns the target T1, hERG channel. Nature of the data set: Test 6-2: inhibitory activity for hERG channel (auto patch clamp, Qube). It counts as cell-based. The conditions noted are these: Test 6-2, hERG-CHO cells, whole cell patch clamp; read-out: hERG inhibition IC50. Here is the method:
Extracellular fluid: 2 mmol/L CaCl2, 1 mmol/L MgCl2, 10 mmol/L HEPES, 4 mmol/L KCl, 145 mmol/L NaCl, 10 mmol/L Glucose
(Measurement of Current Value and Data Analysis)
The cell suspension, the extracellular fluid, the intracellular fluid, and the measurement plate were set in the auto patch clamp system, and hERG current was measured by whole cell patch clamp method. […] Each pulse interval was 15 seconds. […] The test was carried out by applying incrementally 4 concentrations of each test compound, and the average of the maximum peak tail currents which were obtained from the last 3 stimulations in each concentration was determined as the evaluated data. Based on the current inhibition rate for a pre-applied current at each concentration of each test compound, IC50 value was calculated by Hill equation with the software.

Data set [10] is described as follows: Test 10: intracerebral transferability of rats (Kp,uu,brain). It counts as in vivo, rat. As to conditions: unbound drug concentration ratio brain/plasma. How it is done:
Test 10: Evaluation of Intracerebral Transferability (Test for Intracerebral Transferability of Rats)
In this test, intracerebral transferability of the present compounds was evaluated by the following method. The present compounds were subcutaneously administered as a solution in saline, or orally administered as a suspension in methyl cellulose to 7-week-old SD or WKY rats. Plasma and brain were collected on 0.5 hours, 1 hour, or 2 hours after the administration to measure the drug concentrations in plasma and brain by LC-MS.
Binding rates of the present compound to plasma and brain protein were measured by equilibrium dialysis method.
Kp,uu,brain (unbound drug concentration ratio between brain/plasma) can be calculated by applying the compound concentrations in plasma and brain and the binding rates to plasma and brain protein obtained from the above test into the following formula. Kp,uu,brain=(Compound concentration in brain×(100−Binding rate to brain protein (%))/100)/(Compound concentration in plasma×(100−Binding rate to plasma protein (%))/100)

Sequence of human D2 receptor (P14416 whole entry): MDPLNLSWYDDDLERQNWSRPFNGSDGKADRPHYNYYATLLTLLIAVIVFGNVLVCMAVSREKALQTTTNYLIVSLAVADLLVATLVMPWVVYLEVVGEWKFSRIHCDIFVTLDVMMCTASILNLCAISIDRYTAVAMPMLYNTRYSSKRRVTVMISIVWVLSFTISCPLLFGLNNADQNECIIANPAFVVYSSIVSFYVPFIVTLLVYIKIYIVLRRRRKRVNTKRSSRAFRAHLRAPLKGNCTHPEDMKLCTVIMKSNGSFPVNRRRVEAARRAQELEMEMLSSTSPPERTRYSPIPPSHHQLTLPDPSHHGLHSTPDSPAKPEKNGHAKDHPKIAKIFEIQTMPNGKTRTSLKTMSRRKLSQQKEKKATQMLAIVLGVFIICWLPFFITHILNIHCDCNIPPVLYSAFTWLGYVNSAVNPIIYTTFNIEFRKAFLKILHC
T3 sequence (P08908 whole entry): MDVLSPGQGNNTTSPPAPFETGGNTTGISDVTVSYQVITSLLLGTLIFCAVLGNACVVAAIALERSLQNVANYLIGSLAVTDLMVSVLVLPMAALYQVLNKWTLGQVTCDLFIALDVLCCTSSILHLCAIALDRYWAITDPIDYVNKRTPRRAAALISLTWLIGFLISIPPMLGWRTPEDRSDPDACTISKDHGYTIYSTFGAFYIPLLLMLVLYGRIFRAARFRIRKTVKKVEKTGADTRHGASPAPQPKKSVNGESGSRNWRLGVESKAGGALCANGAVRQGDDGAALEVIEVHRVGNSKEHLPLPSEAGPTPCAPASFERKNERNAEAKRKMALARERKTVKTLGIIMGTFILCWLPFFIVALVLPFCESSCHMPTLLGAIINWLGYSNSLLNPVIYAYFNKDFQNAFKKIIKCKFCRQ
T2 sequence (P28223 whole entry): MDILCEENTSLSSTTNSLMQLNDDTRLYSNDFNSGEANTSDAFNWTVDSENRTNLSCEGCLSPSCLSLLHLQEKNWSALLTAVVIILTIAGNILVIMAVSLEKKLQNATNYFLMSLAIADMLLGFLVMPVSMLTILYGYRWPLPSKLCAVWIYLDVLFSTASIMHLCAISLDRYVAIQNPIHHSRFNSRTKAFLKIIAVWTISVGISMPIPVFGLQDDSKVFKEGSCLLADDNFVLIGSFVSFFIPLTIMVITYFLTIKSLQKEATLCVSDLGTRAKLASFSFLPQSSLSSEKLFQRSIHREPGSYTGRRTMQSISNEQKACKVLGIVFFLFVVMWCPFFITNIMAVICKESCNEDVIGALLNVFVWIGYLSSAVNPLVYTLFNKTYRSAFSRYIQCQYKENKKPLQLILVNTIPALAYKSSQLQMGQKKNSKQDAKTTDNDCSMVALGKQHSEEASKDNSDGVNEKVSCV

One may read the IC50 as the concentration at which inhibition is half-maximal. A word on the Ki: it is a measure of affinity in units of concentration, obtained from inhibition or displacement. Usually Emax stands for the size of the effect at its maximum, as opposed to the concentration needed. The half-life is the time needed for the level to fall by half in the phase considered. Turning to `Cn1ncc2c1CCCN(CCN1CCN(c3noc4ccccc34)CC1)C2=O` [Example 80], the IC50 in data set [1] turned out to be 15.4 µM; in data set [4], 55 nM. In data set [2], this compound displayed a Ki of 2.8 nM. Moreover, the “Metabolic stability in human hepatic microsome” value (shortened to “Metabolic stability”) in data set [3] was 0.012 mL/min/mg protein. Further, in data set [5], the Emax at 10 µM was 63%. For the same compound, the half-life in data set [6] is 600 min.

As usually defined, the EC50 is the midpoint of the concentration-response curve. In [7], `Cc1nn(C)c2c1C(=O)N(CCN1CCC(c3noc4ccccc34)CC1)CCC2` [Example 91] displayed a Ki of 0.57 nM. The compound also returned a Ki in data set [8] of 103 nM. Moreover, in data set [3], the “Metabolic stability” value is on record as less than 0.05 mL/min/mg protein. Further, in [5], the response was half-maximal at 8.74 nM (EC50) and the Emax at 10 µM came out at 46%. Also, the IC50 in data set [9] came to 1800 nM.

Take `Cc1nn(C)c2c1C(=O)N(CCN1CCN(c3noc4ccccc34)CC1)CCC2` [Example 92]: in data set [7], affinity was put at a Ki of 5.19 nM. The Ki in [8] worked out at 738 nM. The “Metabolic stability” value in data set [3] was determined as 0.065 mL/min/mg protein. Further, in [5], the EC50 is 76.2 nM and the Emax at 10 µM worked out at 43%. Moreover, in data set [9], the IC50 is more than 10000 nM.

`COc1cc2c(cn1)C(=O)N(CCN1CCN(c3nsc4ccccc34)CC1)CC2` [Example 2, 2-{2-[4-(1,2-Benzoisothiazol-3-yl)piperazin-1-yl]ethyl}-6-methoxy-3,4-dihydro-2,7-naphthyridin-1(2H)-one] came in with a Ki in data set [7] of 0.03 nM. In addition, the IC50 in data set [1] was determined as 2.5 µM. Moreover, in data set [10], the “Kp, uu, brain” value was determined as 1.27. This compound had an inhibition constant (Ki) in data set [8] of 128 nM. Moreover, the “Metabolic stability” value in data set [3] was 0.22 mL/min/mg protein. In data set [5], the EC50 came to 0.18 nM and the Emax at 10 µM was 69%.
